Test results as given in ChEMBL document CHEMBL1201862, “PubChem BioAssay data set” (2004).
The source made the active and inactive calls.

Experiments:
[1] = Shn3 3'UTR reporter inhibitors, dose response, cell-based, Clone20 osteoblasts, firefly luciferase, cherry-picked (AID 624132); format: functional;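 note: firefly luciferase luminescence from reporter carrying the Shn3 3'UTR in osteoblasts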
[2] = HepG2 cell cytotoxicity, dose response, cytotoxicity control for Shn3 inhibitor project, CellTiter-Glo, cherry-picked (AID 624134); format: functional, cell-based
[3] = control 3'UTR Renilla luciferase suppression, dose response, counter-screen for Shn3 inhibitor project, cell-based, Clone20-Shn3RL, cherry-picked (AID 624133); format: functional
[4] = A549 cell cytotoxicity, dose response, cytotoxicity control, plate reader, cherry-pick, antagonist series (AID 743412); format: functional, cell-based
[5] = HepG2 cell cytotoxicity, dose response, cytotoxicity control, plate reader, cherry-pick, antagonist series (AID 743416); format: functional, cell-based
[6] = LGR2 antagonists, dose response, cell-based, HEK293, CRE-luciferase reporter, cherry pick, set 2 (AID 743343); format: functional;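 note: transfected cells were stimulated with diluted bursicon conditioned medium after compound addition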
[7] = MC4R antagonists, dose response, counter-screen for LGR2 antagonist project, cell-based, plate reader, cherry pick (AID 743444); format: functional;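 note: transfected HEK 293 cells stimulated with alpha-MSH peptide; potency of inhibitors of the alpha-MSH evoked signal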
[8] = HEK293 cell cytotoxicity, dose response, cytotoxicity control, plate reader, cherry-picked samples (AID 743446); format: functional, cell-based
[9] = HEK293T cell cytotoxicity, dose response, cytotoxicity control for HIV Vif inhibitor project, cherry-picks (AID 652208); format: functional, cell-based
[10] = target: Nuclear receptor subfamily 5 group A member 2 (Homo sapiens, UniProt O00482); format: functional, cell-based;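 note: HEK293T cells transfected with LRH-1 and a StAR promoter luciferase reporter; potency for inhibitors that lower LRH-1 driven reporter light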
Sequence of Nuclear receptor subfamily 5 group A member 2 (O00482 whole entry): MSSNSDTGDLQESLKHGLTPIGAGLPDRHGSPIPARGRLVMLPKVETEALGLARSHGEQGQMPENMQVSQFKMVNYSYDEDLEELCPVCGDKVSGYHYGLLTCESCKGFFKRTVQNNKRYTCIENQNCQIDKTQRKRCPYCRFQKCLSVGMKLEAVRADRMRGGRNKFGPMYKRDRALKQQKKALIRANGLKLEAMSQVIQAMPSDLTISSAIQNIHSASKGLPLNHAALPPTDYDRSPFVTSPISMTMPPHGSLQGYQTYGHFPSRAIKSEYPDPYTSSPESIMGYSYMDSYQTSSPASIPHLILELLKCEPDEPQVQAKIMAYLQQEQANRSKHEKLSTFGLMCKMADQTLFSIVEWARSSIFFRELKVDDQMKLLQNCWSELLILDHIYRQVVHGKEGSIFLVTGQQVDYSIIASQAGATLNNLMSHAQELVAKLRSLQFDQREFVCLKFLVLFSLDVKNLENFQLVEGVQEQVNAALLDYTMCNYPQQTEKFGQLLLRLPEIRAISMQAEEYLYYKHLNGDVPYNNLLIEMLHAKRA

Steroidogenic factor 1 = Steroidogenic factor 1 (Homo sapiens, UniProt Q13285); test: Counterscreen for inverse agonists of the liver receptor homolog-1 (LRH-1; NR5A2): Luminescence-based cell-based high throughput dose response assay to identify inverse agonists of the Steroidogenic Factor 1 Nuclear Receptor (SF1; NR5A1).; format: functional
Sequence of Steroidogenic factor 1 (Q13285 whole entry): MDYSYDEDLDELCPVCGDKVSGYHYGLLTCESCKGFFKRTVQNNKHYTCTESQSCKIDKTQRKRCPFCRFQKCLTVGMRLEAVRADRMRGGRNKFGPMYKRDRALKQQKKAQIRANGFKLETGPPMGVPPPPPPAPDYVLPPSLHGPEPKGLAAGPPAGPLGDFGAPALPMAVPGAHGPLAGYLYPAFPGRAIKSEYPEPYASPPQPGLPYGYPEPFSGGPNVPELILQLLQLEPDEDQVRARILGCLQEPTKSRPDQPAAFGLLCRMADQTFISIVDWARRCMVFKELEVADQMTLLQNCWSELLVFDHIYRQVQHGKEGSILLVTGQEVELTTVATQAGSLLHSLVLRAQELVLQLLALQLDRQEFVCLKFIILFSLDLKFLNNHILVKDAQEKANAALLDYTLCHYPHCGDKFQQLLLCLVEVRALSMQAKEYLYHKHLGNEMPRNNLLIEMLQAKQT

[11] = StAR promoter reporter inhibition counter-screen, dose response, counter-screen for LRH-1 inverse agonist project, cell-based, luminescence, luciferase reporter (AID 651969); format: functional
[12] = HEp-2 cell cytotoxicity, dose response, cytotoxicity control for RSV inhibitor project, HTS (AID 2410); format: functional; conditions: human respiratory syncytial virus
[13] = target: T1, Mannose-6-phosphate isomerase (Homo sapiens, UniProt P34949); test: human PMI inhibitors, high substrate, primary screen, biochemical, fluorescence intensity, high mannose 6-phosphate (AID 1220)
T1 sequence (P34949 whole entry): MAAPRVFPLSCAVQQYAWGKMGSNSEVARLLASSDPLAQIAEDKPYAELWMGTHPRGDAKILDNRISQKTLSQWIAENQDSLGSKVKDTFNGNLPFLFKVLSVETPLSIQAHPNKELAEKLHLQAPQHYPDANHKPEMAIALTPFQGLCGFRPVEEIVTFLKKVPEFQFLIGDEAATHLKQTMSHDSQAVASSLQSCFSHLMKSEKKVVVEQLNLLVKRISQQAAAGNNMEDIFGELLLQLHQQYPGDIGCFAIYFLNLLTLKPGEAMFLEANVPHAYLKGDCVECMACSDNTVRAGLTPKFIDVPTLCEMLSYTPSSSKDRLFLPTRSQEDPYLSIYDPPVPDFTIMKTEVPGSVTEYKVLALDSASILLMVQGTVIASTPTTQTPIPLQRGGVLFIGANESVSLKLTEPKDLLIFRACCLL

[14] = Counterscreen for inhibitors of Trypanosoma brucei methionyl tRNA synthetase (MetRS): Luminescence-based cell-based high throughput dose response assay to identify compounds that are cytotoxic to Jurkat human T lymphocyte cells.; format: functional
Paired box protein Pax-8 = Paired box protein Pax-8 (Homo sapiens, UniProt Q06710); test: inhibitors of PAX8-driven TPO luciferase reporter, dose response, RMG-I cells, cherry-pick (AID 687027); format: functional, cell-based;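 note: luciferase reporter driven by Pax8 target thyroperoxidase promoter measured by SteadyGlo luminescence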
Sequence of Paired box protein Pax-8 (Q06710 whole entry): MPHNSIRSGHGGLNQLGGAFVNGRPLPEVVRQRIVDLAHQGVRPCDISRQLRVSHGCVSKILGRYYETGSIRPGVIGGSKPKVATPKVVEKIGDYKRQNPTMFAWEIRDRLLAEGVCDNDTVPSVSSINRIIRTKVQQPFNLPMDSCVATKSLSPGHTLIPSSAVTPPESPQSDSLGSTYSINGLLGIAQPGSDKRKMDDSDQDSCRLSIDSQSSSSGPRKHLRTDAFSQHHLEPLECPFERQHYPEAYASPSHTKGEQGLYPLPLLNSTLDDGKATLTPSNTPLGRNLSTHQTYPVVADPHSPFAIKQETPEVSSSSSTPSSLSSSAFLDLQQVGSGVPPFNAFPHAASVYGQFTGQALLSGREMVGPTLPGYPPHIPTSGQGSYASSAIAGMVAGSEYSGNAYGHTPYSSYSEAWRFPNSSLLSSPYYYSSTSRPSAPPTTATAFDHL

[15] = A2780 ovarian cancer cell cytotoxicity, dose response, cytotoxicity control, plate reader, dry powder samples (AID 743046); format: functional, cell-based
[16] = cytotoxicity in OVCAR8 ovarian cancer cells, dose response, PAX8 project, cell-based, plate reader, dry powder samples (AID 743197); format: functional; conditions: OVCAR-8
[17] = HeLa cell cytotoxicity, dose response, cytotoxicity control for MgcRacGAP inhibitor project (AID 624300); format: functional
[18] = target: T2, Rac GTPase-activating protein 1 (Homo sapiens, UniProt Q9H0H5); test: MgcRacGAP GTPase-activating activity inhibitors, confirmation, biochemical, ADP Hunter fluorescence, primary and confirmatory (AID 624330); format: functional
T2 sequence (Q9H0H5 whole entry): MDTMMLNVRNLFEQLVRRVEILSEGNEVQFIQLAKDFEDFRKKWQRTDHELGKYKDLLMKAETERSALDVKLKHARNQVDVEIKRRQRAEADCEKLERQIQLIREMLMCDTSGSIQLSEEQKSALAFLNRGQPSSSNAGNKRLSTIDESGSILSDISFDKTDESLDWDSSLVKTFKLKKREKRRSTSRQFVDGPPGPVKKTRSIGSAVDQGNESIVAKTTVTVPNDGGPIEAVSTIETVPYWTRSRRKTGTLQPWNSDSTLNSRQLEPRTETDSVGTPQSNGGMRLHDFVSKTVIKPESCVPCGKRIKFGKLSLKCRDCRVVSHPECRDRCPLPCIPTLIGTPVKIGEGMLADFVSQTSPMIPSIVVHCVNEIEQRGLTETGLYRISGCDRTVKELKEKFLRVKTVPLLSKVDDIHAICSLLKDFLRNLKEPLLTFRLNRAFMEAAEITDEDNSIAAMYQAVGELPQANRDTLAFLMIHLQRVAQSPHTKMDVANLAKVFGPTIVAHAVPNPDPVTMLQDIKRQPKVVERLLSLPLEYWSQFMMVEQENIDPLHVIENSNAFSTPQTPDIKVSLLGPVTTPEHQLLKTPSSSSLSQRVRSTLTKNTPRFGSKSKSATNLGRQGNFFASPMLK

[19] = NIH-3T3 fibroblast cytotoxicity, dose response, cytotoxicity control, cell-based, fluorescence, Alamar Blue, secondary assay (AID 2327); format: functional;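 note: NIH-3T3 mouse fibroblasts cultured with fluconazole at 8 µg/mL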
[20] = C. albicans growth with fluconazole, confirmation, fluorescence, retest (AID 2467); format: functional, cell-based
[21] = growth suppression of PTEN-null colon cells, dose response, cell-based, HCT116 PTEN knockout (AID 1047); format: functional;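 note: HCT116 colon tumor cells with PTEN knocked out; cells exposed to compound for 60 hours before readout; potency for loss of cell viability measured by luminescence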
[22] = growth suppression of beta-catenin-knockout colon cells, dose response, cell-based, HCT116, human colon tumor (AID 1045); format: functional;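 note: HCT116 colon tumor cells with beta catenin knocked out; cells exposed to compound for 60 hours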
[23] = target: T3, Long-chain-fatty-acid--AMP ligase FadD28 (Mycobacterium tuberculosis, UniProt P9WQ59); test: Fluorescence polarization aasay to screen for inhibitors that compete for the binding of FadD28 to a bisubstrate Measured in Biochemical System Using Plate Reader - 2147-01_Inhibitor_Dose_CherryPick_Activity.; format: functional, Mycobacterium tuberculosis H37Rv
T3 sequence (P9WQ59 whole entry): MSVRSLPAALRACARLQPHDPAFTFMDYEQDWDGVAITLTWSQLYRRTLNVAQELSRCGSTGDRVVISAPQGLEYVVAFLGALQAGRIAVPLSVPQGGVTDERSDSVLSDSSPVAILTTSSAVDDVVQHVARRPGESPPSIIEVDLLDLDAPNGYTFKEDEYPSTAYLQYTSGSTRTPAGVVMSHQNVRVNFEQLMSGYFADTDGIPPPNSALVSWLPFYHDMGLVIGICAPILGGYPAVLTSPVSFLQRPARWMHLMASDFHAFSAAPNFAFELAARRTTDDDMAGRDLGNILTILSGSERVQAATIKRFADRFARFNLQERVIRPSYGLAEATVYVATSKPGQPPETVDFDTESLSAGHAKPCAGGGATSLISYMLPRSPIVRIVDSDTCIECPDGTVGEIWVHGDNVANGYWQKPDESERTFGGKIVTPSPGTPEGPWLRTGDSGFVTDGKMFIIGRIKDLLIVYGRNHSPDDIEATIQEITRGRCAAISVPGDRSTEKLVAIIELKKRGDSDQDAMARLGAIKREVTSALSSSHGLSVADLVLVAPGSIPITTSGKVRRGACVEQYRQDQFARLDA

Cytochrome P450 3A4 = Cytochrome P450 3A4 (Homo sapiens, UniProt P08684);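 note: CYP3A4 tested as one member of a cytochrome P450 panel screen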
Sequence of Cytochrome P450 3A4 (P08684 whole entry): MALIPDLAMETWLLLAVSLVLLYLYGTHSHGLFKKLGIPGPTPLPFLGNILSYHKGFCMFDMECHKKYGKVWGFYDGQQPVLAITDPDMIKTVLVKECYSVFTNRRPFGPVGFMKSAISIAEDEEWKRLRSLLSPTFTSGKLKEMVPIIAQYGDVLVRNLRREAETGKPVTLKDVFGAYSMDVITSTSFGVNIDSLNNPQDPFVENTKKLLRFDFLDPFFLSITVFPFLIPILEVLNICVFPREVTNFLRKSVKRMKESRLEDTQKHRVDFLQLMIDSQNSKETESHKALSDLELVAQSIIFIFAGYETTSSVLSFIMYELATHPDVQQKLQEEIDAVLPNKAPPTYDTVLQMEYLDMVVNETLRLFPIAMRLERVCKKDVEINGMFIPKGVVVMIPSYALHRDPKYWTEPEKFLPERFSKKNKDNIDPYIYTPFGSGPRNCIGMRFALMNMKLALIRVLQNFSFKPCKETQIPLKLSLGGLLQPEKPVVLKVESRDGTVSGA

Cytochrome P450 2C9 = Cytochrome P450 2C9 (Homo sapiens, UniProt P11712)
Sequence of Cytochrome P450 2C9 (P11712 whole entry): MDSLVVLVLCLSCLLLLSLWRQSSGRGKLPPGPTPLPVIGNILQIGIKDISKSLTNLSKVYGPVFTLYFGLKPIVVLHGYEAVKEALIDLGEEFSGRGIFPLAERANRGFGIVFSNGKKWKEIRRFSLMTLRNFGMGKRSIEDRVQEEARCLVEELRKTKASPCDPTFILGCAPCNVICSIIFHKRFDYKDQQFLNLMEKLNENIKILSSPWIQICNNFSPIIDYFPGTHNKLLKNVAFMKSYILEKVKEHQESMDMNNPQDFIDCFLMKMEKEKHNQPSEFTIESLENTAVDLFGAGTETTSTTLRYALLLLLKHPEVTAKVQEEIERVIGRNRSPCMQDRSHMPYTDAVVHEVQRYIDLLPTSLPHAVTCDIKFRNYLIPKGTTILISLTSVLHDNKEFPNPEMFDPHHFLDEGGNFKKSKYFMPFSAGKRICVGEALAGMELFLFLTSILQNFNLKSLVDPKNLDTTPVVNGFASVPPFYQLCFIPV

**Q.** Which AC50 [1] does the source give for `CC(C)c1ccc(NC(=O)Nc2nc(C(N)c3ccccc3)cs2)cc1` (centres undefined) here?
**A.** Its AC50 is 2.48 µM (active).

**Q.** What about the AC50 [2] of the same compound?
**A.** The AC50 was 13.5 µM (active).

**Q.** What about the AC50 [3] of the same compound?
**A.** Its AC50 is 15.4 µM (active).

**Q.** And the AC50 [4]?
**A.** The AC50 was 7.84 µM (active).

**Q.** What about the AC50 [5] of the same compound?
**A.** Its AC50 is 8.5 µM (active).

**Q.** And the AC50 [6]?
**A.** Its AC50 is 25.5 µM (active).

**Q.** What about the AC50 [7] of the same compound?
**A.** Its AC50 is 29 µM (active).

**Q.** What about the AC50 [8] of the same compound?
**A.** The AC50 was 16 µM (active).

**Q.** Which AC50 [9] does the source give for `COc1ccc(C=C2CS(=O)(=O)CC(=Cc3ccc(OC)cc3)C2=O)cc1` here?
**A.** The AC50 was 4.33 µM (active).

**Q.** Which IC50 [10] does the source give for `O=C(Nc1ccccc1C(=O)Nc1nccs1)c1ccccc1` here?
**A.** Its IC50 is 9.83 µM (active).

**Q.** And the IC50 (Steroidogenic factor 1)?
**A.** Its IC50 is 9.51 µM (active).

**Q.** And the IC50 [11]?
**A.** Its IC50 is 26.4 µM (inactive).

**Q.** Which CC50 [12] does the source give for `CC(C)C/N=C/c1c(O)c([N+](=O)[O-])cc2oc3c(c12)CCCC3` here?
**A.** Its CC50 is 25.3 µM (active).

**Q.** What about the IC50 [13] of the same compound?
**A.** Its IC50 is > 50 µM (not active).

**Q.** For `O=C(OCC(=O)c1c[nH]c2ccccc12)c1ccc(OC(F)F)cc1`, which IC50 [14] is on record?
**A.** Its IC50 is 83.3 µM (inactive).

**Q.** Which AC50 (Paired box protein Pax-8) does the source give for `O=C(C[C@@H]1CC[C@H]2[C@@H](COC[C@H](O)CN2C(=O)Nc2ccc(Cl)c(Cl)c2)O1)NCc1ccc(Cl)cc1` here?
**A.** The AC50 was 13.5 µM (active).

**Q.** And the AC50 [15]?
**A.** Its AC50 is 11.9 µM (active).

**Q.** What about the AC50 [16] of the same compound?
**A.** Its AC50 is > 70 µM (inactive).

**Q.** What does the source list for `C[C@H](CO)N1C[C@H](C)[C@H](CN(C)Cc2ccc(C(F)(F)F)cc2)Oc2ccc(NC(=O)Nc3ccccc3)cc2C1=O`?
**A.** AC50 [4]: 7.64 µM (active); AC50 [5]: > 47 µM (inactive); AC50 [6]: 27.4 µM (active); AC50 [7]: 20.2 µM (active); AC50 [8]: > 47 µM (inactive)

**Q.** What does the source list for `COc1cc(/C=N/Nc2nn3cnnc3c3ccccc23)ccc1O`?
**A.** CC50 [17]: 100 µM (active); IC50 [18]: 64.2 µM (active)

**Q.** Which EC50 [19] does the source give for `Cn1c(N/N=C/c2c[nH]c3ccccc23)nc2ccccc21` here?
**A.** The EC50 was > 150 µM (inactive).

**Q.** What about the EC50 [20] of the same compound?
**A.** Its EC50 is > 38 µM (not active).

**Q.** What about the EC50 [21] of the same compound?
**A.** The EC50 was 2.96 µM (active).

**Q.** And the EC50 [22]?
**A.** The EC50 was 2.81 µM (active).

**Q.** And the AC50 [23]?
**A.** The AC50 was 52.1 µM (active).

**Q.** What about the CC50 [17] of the same compound?
**A.** The CC50 was 100 µM (active).

**Q.** What about the IC50 [18] of the same compound?
**A.** Its IC50 is 44.4 µM (active).

**Q.** What about the AC50 (Cytochrome P450 3A4) of the same compound?
**A.** Its AC50 is 20 µM (inconclusive).

**Q.** And the AC50 (Cytochrome P450 2C9)?
**A.** The AC50 was 28.2 µM (inconclusive).
